The source of these data is publication PMC4420247, “8-Triazolylpurines: Towards Fluorescent Inhibitors of the MDM2/p53 Interaction” (PLoS ONE, 2015).

Assay [1] has as its target T1, MDM2 (Homo sapiens, UniProt Q00987). As to the kind of experiment: FP displacement of Texas Red-labelled p53 peptide from MDM2. The class given is binding.
Assay [2] has as its target T1, MDM2. As to the kind of experiment: FP displacement of Texas Red-labelled p53 peptide from MDM2; binding confirmed by WaterLOGSY NMR.

In general, IC50 refers to the concentration needed to halve the response being measured. A high value points to weaker potency in that assay.

T1 sequence (Q00987 whole entry): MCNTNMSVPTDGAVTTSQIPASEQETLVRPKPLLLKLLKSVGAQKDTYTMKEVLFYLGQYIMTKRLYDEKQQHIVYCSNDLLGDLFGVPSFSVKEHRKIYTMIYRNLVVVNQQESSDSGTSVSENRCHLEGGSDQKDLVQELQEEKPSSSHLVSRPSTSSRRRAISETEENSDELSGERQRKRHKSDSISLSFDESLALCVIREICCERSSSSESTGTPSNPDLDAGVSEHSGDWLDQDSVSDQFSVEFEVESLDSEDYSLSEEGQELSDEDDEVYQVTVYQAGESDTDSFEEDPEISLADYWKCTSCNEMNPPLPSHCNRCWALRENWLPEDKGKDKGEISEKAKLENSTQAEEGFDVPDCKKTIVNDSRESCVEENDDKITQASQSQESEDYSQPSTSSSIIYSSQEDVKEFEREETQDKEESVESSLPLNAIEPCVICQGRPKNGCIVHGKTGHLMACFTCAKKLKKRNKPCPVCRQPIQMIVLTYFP

Regarding `CCCNc1nc(N)c2nc(-c3cn(C)nn3)n(C3Cc4ccccc4C3)c2n1` [14j], in assay [1], the half-inhibitory concentration (IC50) was determined as 56 µM. `CCCNc1nc(NCC(=O)OCC)c2nc(-c3cn(C)nn3)n(C3Cc4ccccc4C3)c2n1` [14f, 6-(Ethoxy-carbonyl-methylamino)-9-(2-indanyl)-8-(1-methyl-1H-1,2,3-triazol-4-yl)-2-(1-propylamino)purine] came in with an IC50 in assay [2] of 10 µM.
